Reference: patent US20250368651A1 (priority 2022, published 2025)

Experiments:
RNA Seq6 UGAAGGAAGGU = experiment: Fluorescence polarization (FP) binding assay, RNA Seq6
Procedure: (§1) All synthetic DNA and RNA oligomers were purchased from Integrated DNA Technologies and reconstituted in nuclease-free water (Invitrogen #AM9932) at 1 mM. The concentration of the oligonucleotides at ˜0.1 mM was calibrated with the A260 value measured by a NanoDrop ND-1000 (Thermo, Waltham, MA, USA) and the predicted extinction coefficient (http://www.oligoevaluator.com) using Lamber-Beer's Law. The risdiplam analogues (1 mM in DMSO) were diluted in 2× assay buffer (40 mM HEPES, 200 mM NaCl for RNA; 40 mM HEPES, 200 mM NaCl, 1 mM MgCl2 for DNA) to make a 1 μM 2× working solution.
A 1:2 dilution series (8 points) of each oligonucleotide was prepared in 20-30 μL water to desired concentrations (i.e., 1-128 μM). 20-30 μL 2× working solution containing the 2× assay buffer and the small-molecule ligand was added to each oligonucleotide sample in 1:1 (v/v) and mixed by pipetting for 4 times. For fluorescence polarization measurement, 20 μL of the above 1× working solution was transferred into a 384-well, black, F-bottom microplates (Greiner Bio-One) in duplicates or triplicates. The plate was equilibrated at room temperature for 5 min before being read using a microplate reader (SYNERGY H1, BioTek; Excitation/Emission=360/460 nm) at 25° C. For compound SMN-C5, a competitive binding assay was employed to measure an apparent Kd. SMN-C5 was 1:2 serial diluted for 10 concentration points starting at 750 μM in DMSO. A mixture of SMN-C2 (0.5 μM) and DNA Seq6 (25 μM) in 1× assay buffer was prepared and incubated at room temperature for 10 minutes. 3 μL of SMN-C5 solution at each concentration was added to a 42 μL SMN-C2/DNA Seq6 mixture and incubated at room temperature for 10 minutes. The mixture was then transferred into a microplate (20 μL each well) in duplicates for fluorescence polarization readout. The experimental data were analyzed using Prism 8 software (Graphpad Software, San Diego, CA, USA).

DNA Seq11 TGGAGGAAGGT = experiment: FP binding assay, DNA Seq11; settings: Seq 11 TGGAGGAAGGT; 0.5 μM SMN-C2
Procedure: as §1
(§2) A 1:2 dilution series (8 points) of each oligonucleotide was prepared in 20-30 μL water to desired concentrations (i.e., 1-128 μM). […] For fluorescence polarization measurement, 20 μL of the above 1× working solution was transferred into a 384-well, black, F-bottom microplates (Greiner Bio-One) in duplicates or triplicates. The plate was equilibrated at room temperature for 5 min before being read using a microplate reader (SYNERGY H1, BioTek; Excitation/Emission=360/460 nm) at 25° C. […] The mixture was then transferred into a microplate (20 μL each well) in duplicates for fluorescence polarization readout. The experimental data were analyzed using Prism 8 software (Graphpad Software, San Diego, CA, USA).

DNA Seq12 TGAAAGAAGGT = experiment: FP binding assay, DNA Seq12; settings: Seq 12 TGAAAGAAGGT; 0.5 μM SMN-C2
Procedure: as §1, §2

DNA Seq15 TGAAGGATGGT = experiment: FP binding assay, DNA Seq15; settings: Seq 15 TGAAGGATGGT; 0.5 μM SMN-C2
Procedure: as §1, §2

DNA Seq16 TGAAGGAAAGT = experiment: FP binding assay, DNA Seq16; settings: Seq 16 TGAAGGAAAGT; 0.5 μM SMN-C2
Procedure: as §1, §2

[1] = molecular target: RNA Seq18: 1:1 annealed U1 snRNA binding sequence 5′-AUACΨΨACCU and 5′ splice site 5′-GGAGGUAAGUCU; experiment: FP binding assay, dsRNA Seq18 (binding site 1 sequence); settings: Seq 18, binding site 1 sequence (dsRNA); 0.5 μM SMN-C2
Procedure: as §1, §2

DNA S27 d([…]) = experiment: FP binding assay, 10-nt DNA S27
Procedure: as §1, §2

DNA S1 […] = experiment: FP binding assay, 18-nt DNA S1; settings: range = 95% CI
Procedure: as §1, §2

DNA S3 […] = experiment: FP binding assay, 18-nt DNA S3
Procedure: as §1, §2

DNA S5 […] = experiment: FP binding assay, 18-nt DNA S5
Procedure: as §1, §2

DNA S6 […] = experiment: FP binding assay, 18-nt DNA S6
Procedure: as §1, §2

DNA S12 […] = experiment: FP binding assay, 18-nt DNA S12
Procedure: as §1, §2

DNA S14 […] = experiment: FP binding assay, 18-nt DNA S14
Procedure: as §1, §2

DNA S17 […] = experiment: FP binding assay, 18-nt DNA S17
Procedure: as §1, §2

DNA S21 […] = experiment: FP binding assay, 18-nt DNA S21
Procedure: as §1, §2

DNA S23 […] = experiment: FP binding assay, 18-nt DNA S23
Procedure: as §1, §2

5′-biotinylated RNA Seq4 = experiment: Surface plasmon resonance (SPR) assay, RNA Seq4; assay type: binding; settings: footnote b: SPR assay for RNA Seq4
Procedure: SPR experiments were performed on a Biacore T200 (GE Healthcare) instrument at 25° C. using streptavidin pre-coated SA sensor chips (GE Healthcare). The running buffer composed of 10 mM HEPES, 100 mM NaCl, 0.05% Tween 20 (w/v), 5 mM EDTA, 0.1% (v/v) DMSO at pH 6.8 was prepared freshly, filtered through the […] PVDF membrane prior to use. 5′-biotinylated RNA Seq4 was purchased from GenScript and dissolved in nuclease-free water to a concentration of 100 μM. For immobilization of the biotinylated RNA, the sensor chip was firstly conditioned with 3 consecutive 1 min injections of high salt solution (50 mM NaOH, 1M NaCl) at a flow rate of […]. Next, the biotinylated RNA was diluted 1000× in running buffer (100 nM) and applied over the streptavidin sensor chip surface at a flow rate of 10 μL/min to achieve immobilization level of about 800 RU. Finally, alkyne-PEG-biotin (50 μM in running buffer) was injected (1 min, […]) to block remaining streptavidin surface binding sites. The kinetics analysis was performed following the BiaControl Software Wizard Kinetics protocol. […] All monitored resonance signals were subtracted with signals from a non-binding reference channel. Kinetic values (Kd, ka, kd) were calculated using the BiaEvaluation Software Binding Affinity protocol with 1:1 fitting. […]

in vitro [2] = settings: human
in vitro [3] = settings: human; remark: listed apart in the source

SMILES: CCN1CCN(c2ccc3cc(-c4cn5cc(C)nc(C)c5n4)c(=O)oc3c2)C[C@@H]1C [SMN-C2, (S)-3-(6,8-dimethylimidazo[1,2-a]pyrazin-2-yl)-7-(4-ethyl-3-methylpiperazin-1-yl)-2H-chromen-2-one]
- Kd (RNA Seq6 UGAAGGAAGGU; Seq 6 UGAAGGAAGGU, 0.5 μM SMN-C2, range = 95% CI, read-out: RNA Kd): 17.5 ± 2.2 µM
- binding affinity (Kd) to RNA Seq6 relative to RNA Seq18, fold stronger (RNA Seq6 UGAAGGAAGGU; binding site 2 vs binding site 1): 3.4 fold
- Kd (DNA Seq11 TGGAGGAAGGT): 57.3 ± 20 µM
- Kd (DNA Seq12 TGAAAGAAGGT): 17.6 ± 3.4 µM
- Kd (DNA Seq15 TGAAGGATGGT): 41.1 ± 4.4 µM
- Kd (DNA Seq16 TGAAGGAAAGT): 27.4 ± 6 µM
- Kd [1]: 60 ± 36 µM
- Kd (DNA S27 d([…])): 11.6 ± 1.7 µM
- Kd (DNA S1 […]): 15.3 ± 0.6 µM
- Kd (DNA S3 […]): 21.7 ± 2.7 µM
- Kd (DNA S5 […]): 42.3 ± 4.2 µM
- Kd (DNA S6 […]): 33.3 ± 2.3 µM
- Kd (DNA S12 […]): 37.4 ± 6.7 µM
- Kd (DNA S14 […]): 19.5 ± 2.3 µM
- Kd (DNA S17 […]): 16.5 ± 1.1 µM
- Kd (DNA S21 […]): > 50 µM
- Kd (DNA S23 […]): > 50 µM
- Kd (5′-biotinylated RNA Seq4): 5.4 µM
- CC50 (in vitro [2]): > 30 µM
- CC50 (in vitro [3]): > 30 µM
